Key:
[1] = target: human plasma kallikrein (Homo sapiens, UniProt P03952); assay: Kallikrein inhibition assay utilizing a quenched AMC peptide substrate (FLINT); format: biochemical; conditions: kinetic reads at 5 min intervals over 30 min; 30 min preincubation; Z-Gly-Pro-Arg-AMC substrate; read-out: Kallikrein (KIN) IC50
Description: Biological Example 2: Kallikrein Inhibition Assay Utilizing a Quenched AMC Peptide Substrate
A fluorescence intensity (FLINT) based assay was used to monitor inhibition of human plasma kallikrein. The peptide substrate, Z-Gly-Pro-Arg-AMC (Purchased from Bachem; Catalog #I-1150) was chosen based on its relatively low KM for kallikrein which enables running the assay at lower substrate concentrations to control background fluorescence. The kinetic parameters for this substrate were determined by fitting titration data to the Michaelis-Menten equation yielding a KM=40 μM, kcat=0.76 s^−1, and kcat/KM=18932 M^−1s^−1.
The Kallikrein FLINT assay was used with the following Z-Gly-Pro-Arg-AMC assay buffer: 50 mM Tris, pH 7.5, 100 mM NaCl, 5 mM CaCl2, 0.1 mg/mL BSA, 0.03% CHAPS. Assay buffer was prepared by mixing all ingredients fresh. 2× Z-Gly-Pro-Arg-AMC peptide substrate was prepared by diluting 10 mM stock into 1× assay buffer for a 100 μM working concentration (50 μM final concentration). The 2× kallikrein stock solution was prepared by diluting 14.76 μM stock in 1× assay buffer for a 4 nM working stock solution (2 nM final concentration).
Test compound(s) were run in an 11-point, 3-fold serial dilution with a final top compound concentration of 1 μM. Final DMSO in assay was 2%. Plasma kallikrein was pre-incubated for 30-minute with compound and then 50 μM substrate was added to initiate the reaction. The assay was run with kinetic (KIN) reads at 5 min intervals over 30 minutes. The time course was linear using 2 nM kallikrein greater than 30 minutes. More specifically, the assay was run as follows: • 100 nL of 0.1 mM test compound was dispensed into black 384-well non-binding Greiner BioOne 784900 plate for 1 μM final concentration; • 5 μL of 1× assay buffer was dispensed to columns 24 (low control) and 5 μL 2× human kallikrein enzyme solution was dispensed to columns 1-23 (column 23 high control); • the plate was centrifuged with a “cover” plate at 500 rpm for 1 min the plate was pre-incubated for 30 minutes at room temperature with plate covered; • 5 μL of 2× Z-Gly-Pro-Arg-AMC peptide substrate was dispensed into the entire plate, columns 1-24; • the plate was centrifuged with a “cover” plate at 500 rpm for 1 min; • the plate was read monitoring fluorescence intensity on the BMG PHERAStar at room temperature, using fluorescence module 340 nm/440 nm.
Percent inhibition (IC50) curves were generated per compound tested, and data was analyzed using a 4-parameter logistic fit using GeneData Screener. The relative fluorescence unit (RFU) values were normalized to percent inhibition using the following equation: % inhibition=((HC−LC)−(compound−LC)/(HC−LC))*100
where LC—low control=mean signal of […] 100% inhibition of human kallikrein enzyme; HC—high control=mean signal of […]+Z-Gly-Pro-Arg-AMC peptide substrate with DMSO only.
(§1) An 11-point dose response curve for the test compound(s) was generated using GENDATA to determine IC50 value based on the following equation: Y=Bottom+(Top−Bottom)/(1+10^((log IC50−X)*HillSlope))
(§2) where Y is the % inhibition in the presence of X inhibitor concentration, Top=high control=mean signal of human kallikrein enzyme+Z-Gly-Pro-Arg-AMC peptide substrate with DMSO only; Bottom=low control−mean signal of no human kallikrein enzyme or 100% inhibition of human kallikrein enzyme; HillSlope—Hill coefficient; and IC50=concentration of compound with 50% inhibition in relation to top/high control.
Representative compounds of formula (I) of the present invention were tested according to the procedure described in Biological Example 1 and Biological Example 2 above, with results as listed in Table 2, below. Results listed in the (ER) column were measured using endpoint reads where a single fluorescence reading was measured for each well at a 30 min timepoint. […]

[2] = target: Factor XIa (Homo sapiens, UniProt P03951); assay: Factor XIa inhibition assay utilizing a fluorophore-quencher pair peptide substrate (FLINT); format: biochemical; conditions: kinetic reads at 5 min intervals over 30 min; 30 min preincubation; 5Fam-KLTRAETV-K5Tamra substrate; read-out: FXIa (KIN) IC50
Chain of Factor XIa (P03951 388-625 limits assumed): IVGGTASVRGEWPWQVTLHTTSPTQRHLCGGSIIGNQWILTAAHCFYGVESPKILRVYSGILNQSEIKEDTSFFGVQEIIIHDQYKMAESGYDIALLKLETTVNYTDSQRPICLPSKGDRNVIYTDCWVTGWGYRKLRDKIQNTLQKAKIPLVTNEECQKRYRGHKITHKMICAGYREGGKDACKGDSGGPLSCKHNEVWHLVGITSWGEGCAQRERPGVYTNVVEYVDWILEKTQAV
Chain of Factor XIa (P03951 19-387 partner limits assumed): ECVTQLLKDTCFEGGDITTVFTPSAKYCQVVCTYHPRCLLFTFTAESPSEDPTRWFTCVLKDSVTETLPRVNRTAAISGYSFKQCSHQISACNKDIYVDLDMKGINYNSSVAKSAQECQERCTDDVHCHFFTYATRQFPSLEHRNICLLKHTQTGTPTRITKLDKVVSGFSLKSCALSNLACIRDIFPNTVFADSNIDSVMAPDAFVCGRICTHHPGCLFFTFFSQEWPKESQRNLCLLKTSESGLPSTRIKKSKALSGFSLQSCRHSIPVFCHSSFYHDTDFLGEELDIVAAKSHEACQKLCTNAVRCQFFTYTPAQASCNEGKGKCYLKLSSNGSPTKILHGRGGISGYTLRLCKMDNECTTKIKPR
Text: Biological Example 1: Factor XIa Inhibition Assay Utilizing a Fluorophore-Quencher Pair Peptide Substrate
A fluorescence intensity (FLINT) based assay was used to monitor inhibition of Factor XIa. The peptide substrate, 5Fam-KLTRAETV-K5Tamra (purchased from New England Peptide) was chosen based on the […]. Conversion of zymogen […]. The custom peptide used in this assay was based on the Arg146 cleavage site of FXI. The peptide substrate was designed with a fluorophore-quencher pair, where the fluorescence is quenched until FXIa cleaves the 8-mer peptide after the Arg residue. The substrate KM was fit to a substrate inhibition model whereby kcat=0.86 s^−1, KM=12.4 μM, Ki=61.6 μM with an enzymatic efficiency, and kcat/KM=69523 M^−1s^−1.
The Factor XIa FLINT assay was used with the following 5Fam-KLTRAETV-K5Tamra assay buffer: 50 mM Tris, pH 7.5, 100 mM NaCl, 5 mM CaCl2, 0.1 mg/mL BSA, 0.03% CHAPS. Assay buffer was prepared by mixing all ingredients fresh. 5Fam-KLTRAETV-K5Tamra peptide substrate was first prepared at 10 mM in 100% DMSO, then diluted to 3 mM in 100% DMSO. Assay buffer was then added directly to the 3 mM stock of substrate to prepare the 30 μM 2× working concentration (15 μM final concentration). The 2× Factor XIa stock solution was prepared by diluting 6.562 μM stock in 1× assay buffer for a 200 pM working stock solution (100 pM final concentration).
Test compound(s) were run in an 11-point, 3-fold serial dilution with a final top compound concentration of 100 nM. Final DMSO in assay was 2%. FXIa was preincubated with compound for 30-minutes and then substrate was added to initiate the reaction. The assay was run with either end point (EP) reads at 30 min or kinetic (KIN) reads at 5 min intervals over 30 minutes. The time course was linear using 100 μM FXIa greater than 30 minutes. More specifically, the assay was run as follows: • 100 nL of 0.01 mM test compound was dispensed into black 384-well non-binding Greiner BioOne 784900 plate for 0.1 μM final concentration; • 5 μL of 1× assay buffer was dispensed to column 24 (low control) and 5 μL 2× Factor XIa solution was dispensed to columns 1-23 (column 23 high control); • the plate was centrifuged with a “cover” plate at 500 rpm for 1 min the plate was pre-incubated for 30 minutes at room temperature with plate covered; • 5 μL of 2× 5Fam-KLTRAETV-K5Tamra peptide substrate was dispensed into the entire plate, columns 1-24; • the plate was centrifuged with a “cover” plate at 500 rpm for 1 min; • the plate was read monitoring fluorescence intensity on the BMG PHERAStar at room temperature, using fluorescence module 485 nm/520 nm.
Percent inhibition (IC50) curves were generated per compound tested, and data was analyzed using a 4-parameter logistic fit using GeneData Screener. The relative fluorescence unit (RFU) values were normalized to percent inhibition using the following equation: % inhibition=((HC−LC)−(compound−LC)/(HC−LC))*100 where LC—low control=mean signal of no Factor XIa or 100% inhibition of Factor XIa; HC—high control=mean signal of Factor XIa+5Fam-KLTRAETV-K5Tamra peptide substrate with DMSO only.
as §1
as §2, with “Factor XIa+5Fam-KLTRAETV-K5Tamra” for “human kallikrein enzyme+Z-Gly-Pro-Arg-AMC”, “Factor XIa” for “human kallikrein enzyme”, “Factor XIa;” for “human kallikrein enzyme;”, “control. […]” for “control.”

Chain of human plasma kallikrein (P03952 391-638 limits assumed): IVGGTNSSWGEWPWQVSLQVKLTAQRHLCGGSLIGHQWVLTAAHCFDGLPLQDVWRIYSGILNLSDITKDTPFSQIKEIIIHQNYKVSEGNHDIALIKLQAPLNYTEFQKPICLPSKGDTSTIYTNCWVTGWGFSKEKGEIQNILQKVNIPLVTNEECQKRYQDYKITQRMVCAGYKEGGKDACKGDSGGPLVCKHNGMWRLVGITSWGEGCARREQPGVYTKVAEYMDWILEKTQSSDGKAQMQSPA
Chain of human plasma kallikrein (P03952 20-390 partner limits assumed): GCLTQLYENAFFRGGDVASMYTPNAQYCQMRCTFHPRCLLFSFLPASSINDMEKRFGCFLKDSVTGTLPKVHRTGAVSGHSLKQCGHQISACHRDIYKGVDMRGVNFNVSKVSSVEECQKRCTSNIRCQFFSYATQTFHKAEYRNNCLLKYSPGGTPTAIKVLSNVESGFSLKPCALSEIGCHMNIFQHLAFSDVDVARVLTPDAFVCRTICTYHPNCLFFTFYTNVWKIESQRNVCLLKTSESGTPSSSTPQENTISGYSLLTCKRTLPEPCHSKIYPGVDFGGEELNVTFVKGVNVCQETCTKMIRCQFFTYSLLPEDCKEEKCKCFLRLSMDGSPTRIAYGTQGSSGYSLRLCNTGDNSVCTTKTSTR

| Structure (SMILES) | IC50 [1] [nM] | IC50 [2] [nM] |
| --- | --- | --- |
| Cn1c(-c2cnn(C3CCc4cc(-c5c(-n6cnnn6)ccc(Cl)c5F)c[n+]([O-])c43)c2)cccc1=O (racemic) [ID No. 20, 3-(3-Chloro-2-fluoro-6-(1H-tetrazol-1-yl)phenyl)-7-(4-(1-methyl-6-oxo-1,6-dihydropyridin-2-yl)-1H-pyrazol-1-yl)-6,7-dihydro-5H-cyclopenta[b]pyridine 1-oxide] | > 10000 | 3110 |
| CC(=O)Nc1ccc(-c2cnn(C3CCCc4cc(-c5c(-n6cnnn6)ccc(Cl)c5F)c[n+]([O-])c43)c2)c(F)n1 (racemic) [ID No. 29, 8-(4-(6-Acetamido-2-fluoropyridin-3-yl)-1H-pyrazol-1-yl)-3-(3-chloro-2-fluoro-6-(1H-tetrazol-1-yl)phenyl)-5,6,7,8-tetrahydroquinoline 1-oxide] | 8480 | 765 |
| Cn1nncc1-c1cnn([C@@H]2CCc3cc(-c4c(-n5cnnn5)ccc(Cl)c4F)c[n+]([O-])c32)c1 [ID No. 26, (R)-3-(3-Chloro-2-fluoro-6-(1H-tetrazol-1-yl)phenyl)-7-(4-(1-methyl-1H-1,2,3-triazol-5-yl)-1H-pyrazol-1-yl)-6,7-dihydro-5H-cyclopenta[b]pyridine 1-oxide] | 4040 | 42 |
| Nc1ccc(-c2cnn(C3CCc4cc(-c5c(-n6cnnn6)ccc(Cl)c5F)c[n+]([O-])c43)c2)c(Cl)n1 (racemic) [ID No. 17, 7-(4-(6-Amino-2-chloropyridin-3-yl)-1H-pyrazol-1-yl)-3-(3-Chloro-2-fluoro-6-(1H-tetrazol-1-yl)phenyl)-6,7-dihydro-5H-cyclopenta[b]pyridine 1-oxide] | 432 | 5 |
| Cn1nncc1-c1cnn([C@H]2CCc3cc(-c4c(-n5cnnn5)ccc(Cl)c4F)c[n+]([O-])c32)c1 [ID No. 25, (S)-3-(3-Chloro-2-fluoro-6-(1H-tetrazol-1-yl)phenyl)-7-(4-(1-methyl-1H-1,2,3-triazol-5-yl)-1H-pyrazol-1-yl)-6,7-dihydro-5H-cyclopenta[b]pyridine 1-oxide] | > 10000 | > 10000 |
| NC(=O)c1ccc(-c2cnn(C3CCc4cc(-c5c(-n6cc(C(F)(F)F)nn6)ccc(Cl)c5F)c[n+]([O-])c43)c2)cc1F (single isomer, unassigned) [ID No. 27, (R*)7-(4-(4-Carbamoyl-3-fluorophenyl)-1H-pyrazol-1-yl)-3-(3-chloro-2-fluoro-6-(4-(trifluoromethyl)-1H-1,2,3-triazol-1-yl)phenyl)-6,7-dihydro-5H-cyclopenta[b]pyridine 1-oxide] | 240 | > 100 |
| Nc1nc(F)c(-c2cnn(C3CCCc4cc(-c5c(-n6cnnn6)ccc(Cl)c5F)c[n+]([O-])c43)c2)cc1Cl (racemic) [ID No. 30, 8-(4-(6-Amino-5-chloro-2-fluoropyridin-3-yl)-1H-pyrazol-1-yl)-3-(3-chloro-2-fluoro-6-(1H-tetrazol-1-yl)phenyl)-5,6,7,8-tetrahydroquinoline 1-oxide] | 2880 | 1260 |
